Measured values taken from patent publication US11613517B2, “Amide prodrugs of small molecule nuclear receptor modulators” (OREGON HEALTH & SCIENCE UNIVERSITY, priority 2018, dated 2023).

Target: T1, FAAH (Mus musculus, UniProt O08914)
T1 construct: from tissue; host or cells: live wild type male C57Bl/6 mice (in vivo; brain and serum analysed)
T1 sequence (O08914 1-579): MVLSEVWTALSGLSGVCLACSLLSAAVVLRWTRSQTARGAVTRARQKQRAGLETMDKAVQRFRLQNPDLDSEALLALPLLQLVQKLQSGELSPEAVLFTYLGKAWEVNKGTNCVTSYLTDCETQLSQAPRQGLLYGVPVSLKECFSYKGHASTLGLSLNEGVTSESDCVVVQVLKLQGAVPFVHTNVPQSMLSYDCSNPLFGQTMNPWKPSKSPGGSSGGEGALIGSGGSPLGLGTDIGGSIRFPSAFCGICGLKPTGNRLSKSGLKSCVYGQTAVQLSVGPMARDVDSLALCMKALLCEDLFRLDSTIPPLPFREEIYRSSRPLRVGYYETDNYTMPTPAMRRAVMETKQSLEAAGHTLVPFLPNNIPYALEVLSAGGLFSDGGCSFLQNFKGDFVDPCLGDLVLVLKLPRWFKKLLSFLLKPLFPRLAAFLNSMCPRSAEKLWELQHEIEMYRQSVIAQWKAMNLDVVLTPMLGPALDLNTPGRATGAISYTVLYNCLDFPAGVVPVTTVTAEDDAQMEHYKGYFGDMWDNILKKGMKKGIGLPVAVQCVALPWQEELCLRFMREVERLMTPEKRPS
Test: FAAH Inhibition Study: prodrug alone or after FAAH inhibitor PF-3845 in mice
Conditions: FIG. 12, in vivo
Procedure: Two cohorts of three mice were injected once intraperitoneally (i.p.) with prodrug at 9.14 μmol/kg. One cohort was injected 1 h prior to prodrug administration with a 1 mg/kg dose of FAAH inhibitor PF-3845. Euthanasia was performed on each cohort 1 h after injection with the prodrug and the tissues and blood were harvested. Tissues were immediately frozen and blood was kept on ice for a minimum of 30 min and then spun down at 7500×g for 15 min. Serum ([…]) was collected and was stored with tissues at −80° C. until samples were processed. Samples were processed as described above.
All parent drugs and d6-sobetirome internal standard were analyzed using a QTRAP 4000 hybrid/triple quadrupole linear ion trap mass spectrometer (Applied biosystems) with electrospray ionization (ESI) in negative mode. The mass spectrometer was interfaced to a Shimadzu (Columbia, Md.) SIL-20AC XR auto-sampler followed by 2 LC-20AD XR LC pumps and analysis on an Applied Biosystems/SCIEX QTRAP 4000 instrument (Foster City, Calif.). […] Data were acquired using SCIEX Analyst 1.6.2 software (Framingham, Mass., USA) and analyzed using Multiquant 3.0.2
Statistical analyses were performed using the two-tailed Student t test comparing individual groups with the appropriate vehicle group or as noted. […] AUC values were calculated and data was plotted and analyzed using GraphPad Prism 7. […]

In the case of CNC(=O)COc1cc(C)c(Cc2cc(C#Cc3ccc([N+](=O)[O-])cc3)c(O)c(C(C)C)c2)c(C)c1 [NRMA-2, 2-(4-(4-hydroxy-3-isopropyl-5-((4-nitrophenyl)ethynyl)benzyl)-3,5-dimethylphenoxy)-N-methylacetamide], the “In vivo validation as substrate for the FAAH enzyme” value is reported as “substrate for the FAAH enzyme”.
